# Reference: patent US20220289708A1, “SUBSTITUTED N-PHENYL URACILS, SALTS THEREOF AND THEIR USE AS HERBICIDAL AGENTS” (Bayer Aktiengesellschaft, priority 2019, published 2022)
# Assays:
# Format in all cases: in vivo
# Amaranthus retroflexus [1] = assay: Post-emergence herbicidal action; conditions: application rate 5 g/ha, rated visually after about 3 weeks vs untreated controls
# Method in brief: (§1)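 Test plants, raised in sandy loam in the greenhouse, were treated 2 to 3 weeks after sowing at application rates of 20 g/ha or lower. Scoring compared treated with untreated plants roughly 3 weeks on, where 100% meant death and 0% meant no visible effect.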
# Abutilon theophrasti [2] = assay: Post-emergence herbicidal action; conditions: application rate 5 g/ha, rated visually after about 3 weeks vs untreated controls
# Method in brief: as §1
# Veronica persica [3] = assay: Post-emergence herbicidal action; conditions: application rate 5 g/ha
# Method in brief: as §1
# Triticum aestivum [4] = assay: Pre-emergence crop plant compatibility; conditions: application rate 20 g/ha
# From the text: B. Pre-Emergence Herbicidal Action and Crop Plant Compatibility
# (§2) Seeds of monocotyledonous and dicotyledonous weed plants and crop plants were placed in plastic or organic planting pots and covered with soil. The compounds of the invention, formulated in the form of wettable powders (WP) or as emulsion concentrates (EC), were then applied to the surface of the covering soil as aqueous suspension or emulsion with addition of 0.5% additive at a water application rate equivalent to 600 l/ha (converted). After the treatment, the pots were placed in a greenhouse and kept under good growth conditions for the test plants. After about 3 weeks, the effect of the preparations was scored visually in comparison with untreated controls as percentages. For example, 100% activity=the plants have died, 0% activity=like control plants.
# Tables B14 to B16 below show the crop plant compatibilities of selected compounds of the general formula (I) according to Tables I.1 to I.36 at an application rate corresponding to 20 g/ha, which were obtained in experiments according to the experimental procedure mentioned above. Here, the observed effects on selected crop plants are stated in comparison to the untreated controls (values in %).
# Triticum aestivum [5] = assay: Post-emergence crop plant compatibility; conditions: application rate 5 g/ha
# Method in brief: (§3)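 Greenhouse crop plants in sandy loam sprayed at one-leaf stage (2-3 weeks after sowing) with WP or EC formulations plus 0.5% additive, 600 l/ha water, at 5 g/ha or 20 g/ha. Damage scored visually after about 3 weeks as % versus untreated controls (100% = plants dead).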
# Lolium rigidum = assay: Pre-emergence herbicidal action; conditions: application rate 80 g/ha
# From the text: as §2, with “B. Pre-Emergence Herbicidal Action and Crop Plant Compatibility Seeds of” for “Seeds of”, “control plants. Tables B1 to B13 below show the effects of selected compounds of the general formula (I) according to Tables I.1 to I.36 on various harmful plants and at an application rate corresponding to 80 g/ha or less, which were obtained by the experimental procedure mentioned above.” for “control plants.”
# Viola tricolor [6] = assay: Pre-emergence herbicidal action; conditions: application rate 20 g/ha
# From the text: as §2, with “B. Pre-Emergence Herbicidal Action and Crop Plant Compatibility Seeds of” for “Seeds of”, “control plants. Tables B1 to B13 below show the effects of selected compounds of the general formula (I) according to Tables I.1 to I.36 on various harmful plants and at an application rate corresponding to 80 g/ha or less, which were obtained by the experimental procedure mentioned above.” for “control plants.”
# Digitaria sanguinalis [7] = assay: Pre-emergence herbicidal action; conditions: application rate 20 g/ha
# From the text: as §2, with “B. Pre-Emergence Herbicidal Action and Crop Plant Compatibility Seeds of” for “Seeds of”, “control plants. Tables B1 to B13 below show the effects of selected compounds of the general formula (I) according to Tables I.1 to I.36 on various harmful plants and at an application rate corresponding to 80 g/ha or less, which were obtained by the experimental procedure mentioned above.” for “control plants.”
# Pharbitis purpurea [8] = assay: Pre-emergence herbicidal action; conditions: application rate 20 g/ha
# From the text: as §2, with “B. Pre-Emergence Herbicidal Action and Crop Plant Compatibility Seeds of” for “Seeds of”, “control plants. Tables B1 to B13 below show the effects of selected compounds of the general formula (I) according to Tables I.1 to I.36 on various harmful plants and at an application rate corresponding to 80 g/ha or less, which were obtained by the experimental procedure mentioned above.” for “control plants.”
# Setaria viridis [9] = assay: Pre-emergence herbicidal action; conditions: application rate 20 g/ha
# From the text: as §2, with “B. Pre-Emergence Herbicidal Action and Crop Plant Compatibility Seeds of” for “Seeds of”, “control plants. Tables B1 to B13 below show the effects of selected compounds of the general formula (I) according to Tables I.1 to I.36 on various harmful plants and at an application rate corresponding to 80 g/ha or less, which were obtained by the experimental procedure mentioned above.” for “control plants.”
# Avena fatua [10] = assay: Pre-emergence herbicidal action; conditions: application rate 80 g/ha
# From the text: as §2, with “B. Pre-Emergence Herbicidal Action and Crop Plant Compatibility Seeds of” for “Seeds of”, “control plants. Tables B1 to B13 below show the effects of selected compounds of the general formula (I) according to Tables I.1 to I.36 on various harmful plants and at an application rate corresponding to 80 g/ha or less, which were obtained by the experimental procedure mentioned above.” for “control plants.”
# Polygonum convolvulus [11] = assay: Pre-emergence herbicidal action; conditions: application rate 20 g/ha
# From the text: as §2, with “B. Pre-Emergence Herbicidal Action and Crop Plant Compatibility Seeds of” for “Seeds of”, “control plants. Tables B1 to B13 below show the effects of selected compounds of the general formula (I) according to Tables I.1 to I.36 on various harmful plants and at an application rate corresponding to 80 g/ha or less, which were obtained by the experimental procedure mentioned above.” for “control plants.”
# Alopecurus myosuroides [12] = assay: Pre-emergence herbicidal action; conditions: application rate 20 g/ha
# From the text: as §2, with “B. Pre-Emergence Herbicidal Action and Crop Plant Compatibility Seeds of” for “Seeds of”, “control plants. Tables B1 to B13 below show the effects of selected compounds of the general formula (I) according to Tables I.1 to I.36 on various harmful plants and at an application rate corresponding to 80 g/ha or less, which were obtained by the experimental procedure mentioned above.” for “control plants.”
# Amaranthus retroflexus [13] = assay: Pre-emergence herbicidal action; conditions: application rate 20 g/ha
# From the text: as §2, with “B. Pre-Emergence Herbicidal Action and Crop Plant Compatibility Seeds of” for “Seeds of”, “control plants. Tables B1 to B13 below show the effects of selected compounds of the general formula (I) according to Tables I.1 to I.36 on various harmful plants and at an application rate corresponding to 80 g/ha or less, which were obtained by the experimental procedure mentioned above.” for “control plants.”
# Echinochloa crus-galli [14] = assay: Pre-emergence herbicidal action; conditions: application rate 20 g/ha
# From the text: as §2, with “B. Pre-Emergence Herbicidal Action and Crop Plant Compatibility Seeds of” for “Seeds of”, “control plants. Tables B1 to B13 below show the effects of selected compounds of the general formula (I) according to Tables I.1 to I.36 on various harmful plants and at an application rate corresponding to 80 g/ha or less, which were obtained by the experimental procedure mentioned above.” for “control plants.”
# Matricaria inodora [15] = assay: Pre-emergence herbicidal action; conditions: application rate 20 g/ha
# From the text: as §2, with “B. Pre-Emergence Herbicidal Action and Crop Plant Compatibility Seeds of” for “Seeds of”, “control plants. Tables B1 to B13 below show the effects of selected compounds of the general formula (I) according to Tables I.1 to I.36 on various harmful plants and at an application rate corresponding to 80 g/ha or less, which were obtained by the experimental procedure mentioned above.” for “control plants.”
# Abutilon theophrasti [16] = assay: Pre-emergence herbicidal action; conditions: application rate 20 g/ha
# From the text: as §2, with “B. Pre-Emergence Herbicidal Action and Crop Plant Compatibility Seeds of” for “Seeds of”, “control plants. Tables B1 to B13 below show the effects of selected compounds of the general formula (I) according to Tables I.1 to I.36 on various harmful plants and at an application rate corresponding to 80 g/ha or less, which were obtained by the experimental procedure mentioned above.” for “control plants.”
# Veronica persica [17] = assay: Pre-emergence herbicidal action; conditions: application rate 20 g/ha
# From the text: as §2, with “B. Pre-Emergence Herbicidal Action and Crop Plant Compatibility Seeds of” for “Seeds of”, “control plants. Tables B1 to B13 below show the effects of selected compounds of the general formula (I) according to Tables I.1 to I.36 on various harmful plants and at an application rate corresponding to 80 g/ha or less, which were obtained by the experimental procedure mentioned above.” for “control plants.”
# Viola tricolor [18] = assay: Post-emergence herbicidal action; conditions: application rate 5 g/ha
# Method in brief: as §1
# Digitaria sanguinalis [19] = assay: Post-emergence herbicidal action; conditions: application rate 5 g/ha, rated visually after about 3 weeks vs untreated controls
# Method in brief: as §1
# Pharbitis purpurea [20] = assay: Post-emergence herbicidal action; conditions: application rate 5 g/ha, rated visually after about 3 weeks vs untreated controls
# Method in brief: as §1
# Setaria viridis [21] = assay: Post-emergence herbicidal action; conditions: application rate 5 g/ha, rated visually after about 3 weeks vs untreated controls
# Method in brief: as §1
# Avena fatua [22] = assay: Post-emergence herbicidal action; conditions: application rate 20 g/ha, rated visually after about 3 weeks vs untreated controls
# Method in brief: as §1
# Polygonum convolvulus [23] = assay: Post-emergence herbicidal action; conditions: application rate 5 g/ha
# Method in brief: as §1
# Alopecurus myosuroides [24] = assay: Post-emergence herbicidal action; conditions: application rate 5 g/ha, rated visually after about 3 weeks vs untreated controls
# Method in brief: as §1
# Hordeum murinum = assay: Post-emergence herbicidal action; conditions: application rate 20 g/ha
# Method in brief: as §1
# Echinochloa crus-galli [25] = assay: Post-emergence herbicidal action; conditions: application rate 5 g/ha, rated visually after about 3 weeks vs untreated controls
# Method in brief: as §1
# Stellaria media = assay: Post-emergence herbicidal action; conditions: application rate 5 g/ha, rated visually after about 3 weeks vs untreated controls
# Method in brief: as §1
# Matricaria inodora [26] = assay: Post-emergence herbicidal action; conditions: application rate 20 g/ha, rated visually after about 3 weeks vs untreated controls
# Method in brief: as §1
# Oryza sativa = assay: Post-emergence crop plant compatibility; conditions: application rate 5 g/ha
# Method in brief: as §3
# Zea mays = assay: Post-emergence crop plant compatibility; conditions: application rate 5 g/ha
# Method in brief: as §3
compound,measurement,setting,value
Cn1c(C(F)(F)F)cc(=O)n(-c2cc(Oc3cccnc3OCC(=O)OCCS(C)(=O)=O)c(Cl)cc2F)c1=O [I.15-166],Amaranthus retroflexus (efficacy in %),Amaranthus retroflexus [1],100%
same,Abutilon theophrasti (efficacy in %),Abutilon theophrasti [2],100%
same,Veronica persica (efficacy in %),Veronica persica [3],100%
same,Triticum aestivum (efficacy in %),Triticum aestivum [4],20%
same,Triticum aestivum (efficacy in %),Triticum aestivum [5],0%
same,Lolium rigidum (efficacy in %),Lolium rigidum,100%
same,Viola tricolor (efficacy in %),Viola tricolor [6],100%
same,Digitaria sanguinalis (efficacy in %),Digitaria sanguinalis [7],100%
same,Pharbitis purpurea (efficacy in %),Pharbitis purpurea [8],100%
same,Setaria viridis (efficacy in %),Setaria viridis [9],100%
same,Avena fatua (efficacy in %),Avena fatua [10],100%
same,Polygonum convolvulus (efficacy in %),Polygonum convolvulus [11],100%
same,Alopecurus myosuroides (efficacy in %),Alopecurus myosuroides [12],90%
same,Amaranthus retroflexus (efficacy in %),Amaranthus retroflexus [13],100%
same,Echinochloa crus-galli (efficacy in %),Echinochloa crus-galli [14],80%
same,Matricaria inodora (efficacy in %),Matricaria inodora [15],100%
same,Abutilon theophrasti (efficacy in %),Abutilon theophrasti [16],100%
same,Veronica persica (efficacy in %),Veronica persica [17],100%
Cn1c(C(F)(F)F)cc(=O)n(-c2cc(Oc3cccnc3OCC(=O)OCC#N)c(Cl)cc2F)c1=O [I.15-176],Viola tricolor (efficacy in %),Viola tricolor [18],100%
same,Digitaria sanguinalis (efficacy in %),Digitaria sanguinalis [19],100%
same,Pharbitis purpurea (efficacy in %),Pharbitis purpurea [20],100%
same,Setaria viridis (efficacy in %),Setaria viridis [21],100%
same,Avena fatua (efficacy in %),Avena fatua [22],90%
same,Polygonum convolvulus (efficacy in %),Polygonum convolvulus [23],100%
same,Alopecurus myosuroides (efficacy in %),Alopecurus myosuroides [24],80%
same,Amaranthus retroflexus (efficacy in %),Amaranthus retroflexus [1],100%
same,Hordeum murinum (efficacy in %),Hordeum murinum,100%
same,Echinochloa crus-galli (efficacy in %),Echinochloa crus-galli [25],100%
same,Stellaria media (efficacy in %),Stellaria media,100%
same,Matricaria inodora (efficacy in %),Matricaria inodora [26],100%
same,Abutilon theophrasti (efficacy in %),Abutilon theophrasti [2],100%
same,Veronica persica (efficacy in %),Veronica persica [3],90%
same,Oryza sativa (efficacy in %),Oryza sativa,20%
same,Triticum aestivum (efficacy in %),Triticum aestivum [5],20%
same,Zea mays (efficacy in %),Zea mays,20%
